Read-outs that look alike come from different tables or passages of the source.
Columns and labels:
GM00371 cells = assay: Viability assay (Cell titer glo) in the 3-HIB assay; assay type: cell-based, human; settings: read-out: 3HIB INHIBITION IC50 (μM) MEAN GM00371 cells Viablility Assay
In short: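 GM00371 cells (10,000/well, EMEM/15% FBS) were exposed for 24 h at 37 °C to compounds in 1:3 serial dilution from 30 μM top concentration in EMEM. Reference Compound B at 30 μM served as maximal-toxicity control. Viability read as CellTiter-Glo luminescence.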

BCAT2 = target: T1, BCAT2 (Homo sapiens, UniProt O15382); assay: BCAT2 enzyme inhibition (human); assay type: biochemical
T1 sequence (O15382 28-392): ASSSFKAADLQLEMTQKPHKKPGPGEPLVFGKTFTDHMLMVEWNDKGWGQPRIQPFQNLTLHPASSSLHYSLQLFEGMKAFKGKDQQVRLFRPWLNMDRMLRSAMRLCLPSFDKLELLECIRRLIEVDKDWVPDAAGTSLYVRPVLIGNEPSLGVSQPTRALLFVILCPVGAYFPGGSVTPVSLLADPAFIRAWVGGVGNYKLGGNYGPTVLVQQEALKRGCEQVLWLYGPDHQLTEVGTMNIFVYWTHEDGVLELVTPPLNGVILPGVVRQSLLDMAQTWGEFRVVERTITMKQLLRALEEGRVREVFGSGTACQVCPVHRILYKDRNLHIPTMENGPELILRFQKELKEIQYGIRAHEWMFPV
In short: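 Cell-free coupled fluorescent assay: human BCATm converts branched-chain amino acids and α-ketoglutarate to L-glutamate, which L-glutamate oxidase and HRP link to resorufin formation from Amplex Red; activity taken as reduced glutamate signal.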

| Compound | IC50 (BCAT2) [nM] | IC50 (GM00371 cells; Homo sapiens, 24 h) [µM] | IC50 (GM00371 cells; 24 hours) [µM] |
| --- | --- | --- | --- |
| CNC(=O)c1cc2nc(-c3ccccn3)n([C@H]3CCC[C@@H](NC(=O)c4ccc(Br)s4)C3)c2cc1F [Compound 155] | < 100 | 0.5 to 1 | – |
| CNC(=O)c1ccc2c(c1)nc(-c1ccccc1C)n2[C@H]1CCC[C@@H](NC(=O)c2ccc(Br)s2)C1 [Compound 135] | < 100 | 0.5 to 1 | – |
| CNC(=O)c1ccc2c(c1)nc(-c1ccccc1C#N)n2[C@H]1CCC[C@@H](NC(=O)c2ccc(C#N)s2)C1 [Compound 139] | < 100 | – | ≥ 1 |
| CNC(=O)c1ccc2c(c1)nc(-c1ccccc1C)n2[C@H]1CCC[C@@H](NC(=O)c2ccc(C#N)s2)C1 [Compound 134] | < 100 | ≥ 1 | – |
| CNC(=O)c1ccc2c(c1)nc(-c1ccccn1)n2[C@@H]1CCC[C@H](NC(=O)c2ccc(C#N)s2)C1 [Compound 112] | 100 to 500 | ≥ 1 | – |
| C#Cc1ccccc1-c1nc2cc(C(=O)NC)ccc2n1[C@H]1CCC[C@@H](NC(=O)c2ccc(Br)s2)C1 [Compound 151] | < 100 | 0.1 to 0.5 | – |
| CNC(=O)c1ccc2c(c1)nc(-c1ccccc1C#N)n2[C@H]1CCC[C@@H](NC(=O)c2ccc(Br)s2)C1 [Compound 137] | < 100 | – | 0.1 to 0.5 |
| CNC(=O)c1ccc2c(c1)nc(-c1ccccc1C#N)n2[C@H]1CCC[C@@H](NC(=O)c2ccc(C#N)s2)C1 [Compound 138] | < 100 | ≥ 1 | – |
| CNC(=O)c1cc2nc(-c3ccccc3C#N)n([C@H]3CCC[C@@H](NC(=O)c4ccc(Br)s4)C3)c2cc1F [Compound 157] | < 100 | < 0.1 | – |
| CNC(=O)c1ccc2c(c1)nc(-c1cccc(F)c1)n2[C@H]1CCC[C@@H](NC(=O)c2ccc(Br)s2)C1 [Compound 154] | < 100 | 0.1 to 0.5 | – |
| CNC(=O)c1ccc2c(c1)nc(-c1ccccc1F)n2[C@H]1CCC[C@@H](NC(=O)c2ccc(Br)s2)C1 [Compound 145] | < 100 | 0.1 to 0.5 | – |
| CNC(=O)c1ccc2c(c1)nc(-c1ccccc1C#N)n2[C@H]1CCC[C@@H](NC(=O)c2ccc(Br)s2)C1 [Compound 136] | < 100 | < 0.1 | – |
| COC(=O)c1ccc2c(c1)nc(-c1ccccn1)n2[C@@H]1CCC[C@H](NC(=O)c2ccc(Br)s2)C1 [Compound 109] | 100 to 500 | 0.1 to 0.5 | – |

More lines, main results first:

| IC50 (BCAT2) [nM] | Compound | IC50 (GM00371 cells; Homo sapiens, 24 h) [µM] | IC50 (GM00371 cells; 24 hours) [µM] |
| --- | --- | --- | --- |
| < 100 | CNC(=O)c1ccc2c(c1)nc(-c1ccccc1C=O)n2[C@H]1CCC[C@@H](NC(=O)c2ccc(Br)s2)C1 [Compound 161] | 0.1 to 0.5 | – |
| < 100 | CNC(=O)c1cc2nc(-c3ccccc3F)n([C@H]3CCC[C@@H](NC(=O)c4ccc(Br)s4)C3)c2cc1F [Compound 207] | 0.1 to 0.5 | – |
| < 100 | CNC(=O)c1cc2nc(-c3ccccc3C)n([C@H]3CCC[C@@H](NC(=O)c4ccc(Br)s4)C3)c2cc1F [Compound 208] | 0.1 to 0.5 | – |
| < 100 | CNC(=O)c1cc2nc(-c3ccccn3)n([C@H]3CCC[C@@H](NC(=O)c4ccc(Br)s4)C3)c2cn1 [Compound 292] | 0.1 to 0.5 | – |
| < 100 | COC(=O)c1cc2nc(-c3ccccn3)n([C@@H]3CCC[C@H](NC(=O)c4ccc(Br)s4)C3)c2cn1 [Compound 291] | 0.1 to 0.5 | – |
| < 100 | CNC(=O)c1ccc2c(c1)nc(-c1c(O)cccc1F)n2[C@H]1CCC[C@@H](NC(=O)c2ccc(Br)s2)C1 [Compound 184] | 0.1 to 0.5 | – |
| < 100 | CNC(=O)c1ccc2c(c1)nc(-c1cccc(F)c1O)n2[C@H]1CCC[C@@H](NC(=O)c2ccc(Br)s2)C1 [Compound 163] | 0.1 to 0.5 | – |

Source: patent US20220274967A1, “BCAT MODULATION” (Icagen, LLC, priority 2019, published 2022)
